According to ChEMBL document CHEMBL1687721, “New drugs against tuberculosis: problems, progress, and evaluation of agents in clinical development” (Antimicrob Agents Chemother, 2009):
Converted amounts (≈) assume the structure as drawn.

Columns and labels:
[1] = tested on: Mycobacterium tuberculosis; experiment: Antimicrobial activity against compound-susceptible Mycobacterium tuberculosis; format: functional
[2] = Plasma protein binding in human at 0.1 to 2.5 ug/ml by ultracentrifugation; format: ADME, cell-free; conditions: read-out: PPB (converted)
[3] = Plasma protein binding in Beagle dog at 0.1 to 2.5 ug/ml by ultracentrifugation; format: ADME, cell-free, Canis lupus familiaris; conditions: read-out: PPB (converted)
[4] = Plasma protein binding in Fischer rat at 0.1 to 2.5 ug/ml by ultracentrifugation; format: ADME, cell-free; conditions: read-out: PPB (converted)
[5] = Plasma protein binding in CD2F1 mouse at 0.1 to 2.5 ug/ml by ultracentrifugation; format: ADME, cell-free; conditions: read-out: PPB (converted)
[6] = tested on: Mycobacterium tuberculosis; format: functional
[7] = Half life in healthy human; format: ADME, organism-based; conditions: in vivo
[8] = Tmax in healthy human; format: ADME, organism-based; conditions: in vivo
[9] = Drug excretion in feces of healthy human; format: ADME; conditions: faeces, read-out: Activity
[10] = Drug excretion in urine of healthy human; format: ADME, tissue-based; conditions: read-out: Activity
[11] = Oral bioavailability in healthy human at 400 mg/kg, po; format: ADME, organism-based; conditions: in vivo
[12] = AUC in healthy human at 400 mg/kg, po; format: ADME, organism-based; set-up: dose 400 mg/kg, route oral; conditions: plasma
[13] = Drug excretion in urine of healthy human at 800 mg/kg; format: ADME, organism-based; set-up: dose 800 mg/kg; conditions: read-out: Activity
[14] = Drug excretion in feces of healthy human at 800 mg/kg; format: ADME, organism-based; set-up: dose 800 mg/kg; conditions: faeces, read-out: Activity
clinical [15] = conditions: human, in vivo, po, 400 mg/kg
Description: Tmax in patients with pulmonary tuberculosis at 400 mg/kg, po

[16] = tested on: Mycobacterium tuberculosis; experiment: microbe, parasite or virus in culture
Description: Antimicrobial activity against rifampicin-sensitive Mycobacterium tuberculosis

[17] = Oral bioavailability in healthy human at 10 mg/kg, po; format: ADME, organism-based; conditions: in vivo
[18] = AUC in healthy human at 10 mg/kg, po; format: ADME, organism-based; set-up: dose 10 mg/kg, route oral; conditions: plasma
[19] = Tmax in healthy human at 10 mg/kg, po; format: ADME, organism-based; set-up: dose 10 mg/kg, route oral; conditions: in vivo
[20] = Plasma protein binding in healthy human at 10 mg/kg, po; format: ADME, organism-based; set-up: dose 10 mg/kg, route oral; conditions: read-out: PPB (converted)
Mycobacterium avium = experiment: Antimicrobial activity against Mycobacterium avium; format: functional
clinical [21] = conditions: human, in vivo, po, 10 mg/kg
[22] = tested on: Mycobacterium tuberculosis; experiment: microbe, parasite or virus in culture; remark: listed apart in the source
Description: Antimicrobial activity against Mycobacterium tuberculosis

[23] = Renal excretion in healthy human at 400 mg/kg, po administered as single dose; format: ADME, organism-based, Kidney; set-up: dose 400 mg/kg, route oral; conditions: urine, read-out: Activity
clinical [24] = conditions: human, plasma, po, 400 mg/kg
Description: Plasma protein binding in healthy human at 400 mg/kg, po

[25] = AUC in healthy human at 600 mg/kg, po; format: ADME, organism-based; set-up: dose 600 mg/kg, route oral; conditions: plasma
[26] = Cmax in healthy human at 600 mg/kg, po; format: ADME, organism-based; set-up: dose 600 mg/kg, route oral; conditions: in vivo
[27] = Tmax in healthy human at 600 mg/kg, po; format: ADME, organism-based; set-up: dose 600 mg/kg, route oral; conditions: in vivo
[28] = Half life in healthy human at 600 mg/kg, po; format: ADME, organism-based; set-up: dose 600 mg/kg, route oral; conditions: in vivo
[29] = Plasma protein binding in healthy human at 600 mg/kg, po; format: ADME, organism-based; set-up: dose 600 mg/kg, route oral; conditions: read-out: PPB (converted)
[30] = Ratio of AUC to MIC against Mycobacterium avium; format: functional
[31] = Half life in human; format: ADME, organism-based; conditions: in vivo
[32] = Tmax in human; format: ADME, organism-based; conditions: in vivo

CC(C)=CCC/C(C)=C/CNCCNC1C2CC3CC(C2)CC1C3 (stereo unspecified) [SQ109]
MIC [1]: 0.16 µg/mL (≈ 0.484 µM)
fraction unbound [2]: 0.94
fraction unbound [3]: 0.94
fraction unbound [4]: 0.94
fraction unbound [5]: 0.94

CC[C@@H](CO)NCCN[C@@H](CC)CO [ETHAMBUTOL]
Activity [6]: 26%

O=[N+]([O-])c1cn2c(n1)OC[C@@H](OCc1ccc(OC(F)(F)F)cc1)C2 [PRETOMANID]
MIC [1]: 0.015 µg/mL (≈ 0.0418 µM)
half-life [7]: 18 h
Tmax [8]: 4 h
dose excreted [9]: 26%
dose excreted [10]: 65%

COc1c(N2C[C@@H]3CCCN[C@@H]3C2)c(F)cc2c(=O)c(C(=O)O)cn(C3CC3)c12 [MOXIFLOXACIN]
bioavailability [11]: 86%
AUC [12]: 26900 ng·h/mL
dose excreted [13]: 20%
dose excreted [14]: 25%
Activity [6]: 37%
Tmax (clinical [15]): 1 h
MIC [16]: 0.25 µg/mL (≈ 0.623 µM)

CO[C@H]1/C=C/O[C@@]2(C)Oc3c(C)c(O)c4c(O)c(c(/C=N/N5CCN(C)CC5)c(O)c4c3C2=O)NC(=O)/C(C)=C\C=C\[C@H](C)[C@H](O)[C@@H](C)[C@@H](O)[C@@H](C)[C@H](OC(C)=O)[C@@H]1C [RIFAMPIN]
bioavailability [17]: 68%
AUC [18]: 21500 ng·h/mL
Tmax [19]: 1.5 h
fraction unbound [20]: 0.15
MIC (Mycobacterium avium): 0.15 µg/mL (≈ 0.182 µM)
Cmax (clinical [21]): 8000 ng/mL
MIC [22]: 0.15 µg/mL (≈ 0.182 µM)

Cc1c(CN2CCN(c3ccc(C(F)(F)F)cc3)CC2)cc(-c2ccccc2)n1NC(=O)c1ccncc1
MIC90 [22]: 0.25 µg/mL (≈ 0.481 µM)

C[C@]1(COc2ccc(N3CCC(Oc4ccc(OC(F)(F)F)cc4)CC3)cc2)Cn2cc([N+](=O)[O-])nc2O1
MIC [1]: 0.006 µg/mL (≈ 0.0112 µM)

COc1c(N2CCNC(C)C2)c(F)cc2c(=O)c(C(=O)O)cn(C3CC3)c12 (stereo unspecified) [GATIFLOXACIN]
bioavailability [11]: 96%
dose excreted [23]: 77%
Tmax (clinical [15]): 1.5 h
fraction unbound (clinical [24]): 0.8

CO[C@H]1/C=C/O[C@@]2(C)Oc3c(C)c(O)c4c(O)c(c(/C=N/N5CCN(C6CCCC6)CC5)c(O)c4c3C2=O)NC(=O)/C(C)=C\C=C\[C@H](C)[C@H](O)[C@@H](C)[C@@H](O)[C@@H](C)[C@H](OC(C)=O)[C@@H]1C [RIFAPENTINE]
AUC [25]: 319000 ng·h/mL
Cmax [26]: 10000 ng/mL
Tmax [27]: 4.8 h
half-life [28]: 13 h
fraction unbound [29]: 0.03
RatioAUC/MIC [30]: 76.6
MIC [16]: 0.02 µg/mL (≈ 0.0228 µM)

COc1nc2ccc(Br)cc2cc1[C@@H](c1ccccc1)[C@@](O)(CCN(C)C)c1cccc2ccccc12 [BEDAQUILINE]
half-life [31]: 24 h
Tmax [32]: 5 h
MIC [1]: 0.03 µg/mL (≈ 0.054 µM)
